{"source": "patent EP0404162A1", "about": "“Composition for treating pigmentation” (priority 1989, dated 1990)", "key": {"[1]": {"experiment": "Toxicity (LD50), subcutaneous administration, mice", "conditions": "mouse, in vivo, sc, read-out: LD₅₀", "procedure": "(§1) The toxicity of kojic acid which is the effective ingredient of the present invention is extremely low; LD₅₀ is 2.050 mg/kg in mice and 2.260 mg/kg in rats, by subcutaneous administration. Therefore, the present invention is quite safe as a medicament."}, "[2]": {"experiment": "Toxicity (LD50), subcutaneous administration, rats", "conditions": "rat, in vivo, sc, read-out: LD₅₀", "procedure": "as §1"}}}
{"smiles": "O=c1cc(CO)occ1O", "note": "[kojic acid, 5-oxy-2-oxymethyl-γ-pyrone]", "values": [{"measurement": "LD50", "setting": "[1]", "result": 2.05, "unit": "mg/kg"}, {"measurement": "LD50", "setting": "[2]", "result": 2.26, "unit": "mg/kg"}]}
